Assay [1] has as its target T1, human 5-HT2B receptors in a CHO cell line (Homo sapiens, UniProt P41595).
T1 construct: expressed in transfected cells; host or cells: CHO cell line
Briefly: Binding to 5-HT2B receptor, [3H]-5-HT, Method (b). The note with it: read-out: Ki (2B). The protocol:
(§1) The binding of compounds of formula (I) to serotonin receptors was determined in vitro by standard methods. The preparations were investigated in accordance with the assays given hereinafter.
Method (b): For the binding to the 5-HT2B receptor the 5-HT2B receptors were radiolabelled with [^3H]-5-HT. The affinity of the compounds for human 5-HT2B receptors in a CHO cell line was determined according to the procedure of K. Schmuck, C. Ullmer, P. Engels and H. Lubbett, FEBS Lett., 1994, 342, 85–90.

Assay [2] deals with T2, h5-HT2A receptor (CHO cells) (Homo sapiens, UniProt P28223).
T2 construct: expressed in transfected cells; host or cells: CHO cells
Briefly: Functional activity, FLIPR calcium assay, h5-HT2A. It is filed as cell-based. As for the experimental part:
(§2) The functional activity of compounds of formula (I) was assayed using a Fluorimetric Imaging Plate reader (FLIPR):
(§3) CHO cells expressing either the h5-HT2C or h5-HT2A receptors were counted and plated into standard 96 well microtitre plates before the day of testing to give a confluent monolayer. The following day the cells were dye loaded with the calcium sensitive dye Fluo 3-AM by incubation with serum free culture maintenance media containing pluronic acid and Fluo 3-AM dissolved in DMSO at 37° C. in a CO2 incubator at 95% humidity for approximately 90 minutes. Unincorporated dye was removed by washing with Hanks balanced salt solution containing 20 mM HEPES and 2.5 mM probenecid (the assay buffer) using an automated cell washer to leave a total volume of 100 μl/well.
(§4) The drug (dissolved in 50 μl of assay buffer) was added at a rate of 70 μl/sec to each well of the FLIPR 96 well plate during fluorescence measurements. The measurements are taken at 1 sec intervals and the maximum fluorescent signal was measured (approx 10–15 secs after drug addition) and compared with the response produced by 10 μM 5-HT (defined as 100%) to which it is expressed as a percentage response (relative efficacy). Dose response curves were constructed using Graphpad Prism (Graph Software Inc.).

In assay [3] the target is T3, 5-HT2A receptors in a CHO cell line (Homo sapiens, UniProt P28223).
T3 construct: expressed in transfected cells; host or cells: CHO cell line
Briefly: Binding to 5-HT2A receptor, [125I]-DOI, Method (c). Particulars: read-out: Ki (2A). The protocol: as §1
Method (c): For the binding to the 5-HT2A receptor the 5-HT2A receptors were radiolabelled with […]. The affinity of the compounds for 5-HT2A receptors in a CHO cell line was determined according to the procedure of D. J. McKenna and S. J. Peroutka, J. Neurosci., 1989, 9/10, 3482–90.

Assay [4] concerns the target T4, 5-HT2c receptors in a CHO cell line (Homo sapiens, UniProt P28335).
T4 construct: expressed in transfected cells; host or cells: CHO cell line
T4 sequence (P28335 33-458): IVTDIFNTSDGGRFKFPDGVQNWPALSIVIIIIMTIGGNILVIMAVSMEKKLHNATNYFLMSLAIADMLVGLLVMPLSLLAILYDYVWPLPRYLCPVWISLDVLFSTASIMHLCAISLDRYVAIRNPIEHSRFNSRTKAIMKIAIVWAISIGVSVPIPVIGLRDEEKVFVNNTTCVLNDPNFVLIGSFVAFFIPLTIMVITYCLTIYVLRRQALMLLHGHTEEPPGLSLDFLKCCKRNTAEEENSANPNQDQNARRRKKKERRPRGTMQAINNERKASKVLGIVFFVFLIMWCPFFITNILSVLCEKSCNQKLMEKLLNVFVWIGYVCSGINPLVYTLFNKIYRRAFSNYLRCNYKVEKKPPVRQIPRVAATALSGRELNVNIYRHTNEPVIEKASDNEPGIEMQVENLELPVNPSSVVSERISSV
Briefly: Binding to 5-HT2c receptor, [3H]-5-HT, Method (a). Particulars: read-out: Ki (2C). The protocol:
as §1
Method (a): For the binding to the 5-HT2c receptor the 5-HT2c receptors were radiolabelled with [^3H]-5-HT. The affinity of the compounds for 5-HT2c receptors in a CHO cell line was determined according to the procedure of D. Hoyer, G. Engel and H. O. Kalkman, European J. Pharmacol., 1985, 118, 13–23.

For assay [5], the target named is T5, h5-HT2C receptor (CHO cells) (Homo sapiens, UniProt P28335).
T5 construct: expressed in transfected cells; host or cells: CHO cells
T5 sequence (P28335 33-458): T4 sequence (P28335 33-458)
Briefly: Functional activity, FLIPR calcium assay, h5-HT2C. It is filed as cell-based. The protocol:
as §2, §3, §4

The subject of assay [6] is 5-HT2c syndrome (splayed limbs, hunched posture, retro-pulsion). Briefly: 5-HT2c syndrome, in vivo efficacy of 5-HT2C agonists. Particulars: rats, 1 mg/kg s.c. The protocol: The efficacy of 5-HT2C agonists was assessed for ability to induce a specific syndrome.
The 5-HT2c syndrome is a rapid screening method to assess the in vivo efficacy of 5-HT2c agonists through their ability to induce three specific behaviours in rats. The animals are dosed with either a positive control (mCPP), test compound or vehicle, either s.c. or p.o. The animals are observed on an open bench, typically 30, 60 and 180 minutes and the degree of syndrome is assessed over a two minute period on a scale of 0–3 depending on the presence and severity of splayed limbs, hunched posture and retro-pulsion, the three specific behaviours which constitute the syndrome. Data is analysed using Kruskal-Wallis Analysis of Variance followed with appropriate post-hoc tests. All statistical analysis are conducted using Excel version 7.0 (Microsoft Corp.) and Statistica version 5.0 (Stasoft, Inc.).

Counter-ions that a name gives are not always drawn.

T2 sequence (P28223 whole entry): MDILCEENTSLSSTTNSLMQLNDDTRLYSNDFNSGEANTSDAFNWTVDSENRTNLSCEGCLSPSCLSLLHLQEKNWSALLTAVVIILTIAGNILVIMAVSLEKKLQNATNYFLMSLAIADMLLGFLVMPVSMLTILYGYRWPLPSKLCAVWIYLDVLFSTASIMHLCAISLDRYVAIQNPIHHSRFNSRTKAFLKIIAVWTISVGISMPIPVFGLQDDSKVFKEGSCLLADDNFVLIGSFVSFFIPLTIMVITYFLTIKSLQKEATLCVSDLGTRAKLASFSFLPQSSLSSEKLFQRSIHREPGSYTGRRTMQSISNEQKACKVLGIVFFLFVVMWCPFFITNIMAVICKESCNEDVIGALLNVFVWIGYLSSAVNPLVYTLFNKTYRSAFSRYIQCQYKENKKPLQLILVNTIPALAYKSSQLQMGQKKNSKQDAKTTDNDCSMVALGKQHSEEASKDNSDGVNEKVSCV
T3 sequence (P28223 whole entry): as above
T1 sequence (P41595 whole entry): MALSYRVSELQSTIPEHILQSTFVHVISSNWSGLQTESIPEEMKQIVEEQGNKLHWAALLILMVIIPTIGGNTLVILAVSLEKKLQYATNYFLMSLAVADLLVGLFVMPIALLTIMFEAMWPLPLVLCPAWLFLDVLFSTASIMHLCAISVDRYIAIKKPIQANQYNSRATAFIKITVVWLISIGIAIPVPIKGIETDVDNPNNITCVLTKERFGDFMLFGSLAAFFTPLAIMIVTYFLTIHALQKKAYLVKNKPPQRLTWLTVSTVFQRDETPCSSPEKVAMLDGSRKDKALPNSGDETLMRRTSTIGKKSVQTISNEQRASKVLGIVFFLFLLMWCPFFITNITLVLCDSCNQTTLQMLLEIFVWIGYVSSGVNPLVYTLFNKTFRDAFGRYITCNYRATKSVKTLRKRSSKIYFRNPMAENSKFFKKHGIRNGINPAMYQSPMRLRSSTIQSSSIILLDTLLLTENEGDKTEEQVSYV

`Clc1ccc2c(c1)N1CCNCC1C2` (racemic) [Example 1, (RS) 7-Chloro-1,2,3,4,10,10a-hexahydropyrazino[1,2-a]indole hydrochloride]: the Ki (usually a dissociation constant, usually derived from enzyme kinetics or from competition with a known ligand) in assay [1] is 32 nM; in assay [3], 53 nM; in assay [4], 31 nM. Besides, the half-maximal effective concentration (EC50) – broadly, the concentration needed to bring the measured effect to its halfway point – in assay [2] came out at 513 nM; in assay [5], 18 nM. In addition, the Emax in assay [2] (CHO, read-out: h5-HT2A Relative Efficacy) is 53%; in assay [5] (CHO, read-out: h5-HT2C Relative Efficacy), 91%. Moreover, in assay [6], the “time for which significant pharmacological efficacy is maintained (5-HT2c syndrome)” value was “at least 180 minutes”.

For the origin of these results see US7145009B2, “Pirazino(aza)indole derivatives” (priority 1999, dated 2006).
